We go through ten compounds from ChEMBL document CHEMBL3352513, “Discovery of 3-Arylcoumarin-tetracyclic Tacrine Hybrids as Multifunctional Agents against Parkinson's Disease” (2014).

The target in assay [1] is Alpha-synuclein (Homo sapiens) (UniProt P37840). The assay can be described thus: Inhibition of YFP-tagged human alpha-synuclein aggregation expressed in transgenic Caenorhabditis elegans model NL5901 incubated for 48 hrs by fluorescent microscopy relative to untreated control.
In assay [2] the target is T1, Acetylcholinesterase 1 (Caenorhabditis elegans) (UniProt P38433).
T1 sequence (whole entry): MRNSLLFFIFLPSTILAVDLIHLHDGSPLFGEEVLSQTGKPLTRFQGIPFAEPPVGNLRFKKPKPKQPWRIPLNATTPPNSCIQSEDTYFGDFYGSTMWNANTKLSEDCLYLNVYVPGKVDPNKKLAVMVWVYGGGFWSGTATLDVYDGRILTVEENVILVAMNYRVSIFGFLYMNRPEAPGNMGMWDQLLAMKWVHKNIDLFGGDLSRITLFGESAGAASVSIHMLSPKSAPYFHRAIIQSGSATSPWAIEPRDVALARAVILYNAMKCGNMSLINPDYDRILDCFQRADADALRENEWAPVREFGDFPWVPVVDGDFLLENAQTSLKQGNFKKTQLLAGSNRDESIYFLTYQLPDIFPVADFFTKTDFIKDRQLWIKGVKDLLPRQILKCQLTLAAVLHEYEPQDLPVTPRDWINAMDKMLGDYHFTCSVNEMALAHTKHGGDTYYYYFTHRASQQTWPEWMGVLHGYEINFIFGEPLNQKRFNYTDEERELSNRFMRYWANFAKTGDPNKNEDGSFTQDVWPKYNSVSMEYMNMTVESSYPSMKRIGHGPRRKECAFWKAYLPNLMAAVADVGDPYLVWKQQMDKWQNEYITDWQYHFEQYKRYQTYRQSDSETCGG
The assay can be described thus: Inhibition of AChE in Caenorhabditis elegans assessed as increase in acetylcholine after 48 hrs by Amplex red assay.

In assay [3] the test system is HEK293. The assay can be described thus: Cytotoxicity against HEK293 cells assessed as inhibition of cell proliferation at 2 mM after 48 hrs by MTT assay. It is filed as functional. The settings on record: Homo sapiens, HEK293, 48 h; read-out: GI. (Formazan colour is commonly taken as a measure of viable cells.)
Assay [4] relates to HepG2. The assay can be described thus: Cytotoxicity against human HepG2 cells assessed as inhibition of cell proliferation at 500 uM after 48 hrs by MTT assay. It is filed as functional. The following applies: HepG2, 48 h, read-out: GI.
For assay [5], the system named is HepG2. The assay can be described thus: Cytotoxicity against human HepG2 cells assessed as inhibition of cell proliferation at 2 mM after 48 hrs by MTT assay. The settings on record: HepG2, 48 h, read-out: GI. In kind it is functional.
The test system of assay [6] is HEK293. Nature of the assay: Cytotoxicity against HEK293 cells assessed as inhibition of cell proliferation at 500 uM after 48 hrs by MTT assay. In kind it is functional. The settings on record: Homo sapiens, HEK293, 48 h; read-out: GI.
The test system of assay [7] is Caenorhabditis elegans. The assay can be described thus: […] content in Caenorhabditis elegans NL5901 assessed as reduction in response time after 48 hrs nonanol repulsion assay. It is filed as functional.
Assay [8] has as its system Caenorhabditis elegans. Nature of the assay: Increase in DAF16 nuclear localization in GFP expressing Caenorhabditis elegans TJ356 after 48 hrs by fluorescence microscopy. It is filed as functional, organism-based.
The subject of assay [9] is Caenorhabditis elegans. The assay can be described thus: Antioxidant activity in Caenorhabditis elegans N2 assessed as reduction in ROS generation H2DCFDA dye based fluorescent assay. It is filed as functional.
Assay [10] concerns Caenorhabditis elegans. The assay can be described thus: […] content in Caenorhabditis elegans N2 assessed as reduction in response time after 48 hrs nonanol repulsion assay. In kind it is functional.

The source made the active and inactive calls. The calls are words filed in the database; no cut-off is given here.

With `CCC(C)c1cc(C2C3=C(CCCC3=O)Oc3nc4c(c(N)c32)CCC4)cc2cc(-c3cc(OC)c(OC)c(OC)c3)c(=O)oc12` (racemic), the fold change (FC) was determined as 1.76 in assay [1] and 1.14 in assay [2].

For `COc1ccc(-c2cc3cc(C4C5=C(CC(C)(C)CC5=O)Oc5nc6c(c(N)c54)CCC6)cc(C(C)C)c3oc2=O)cc1OC` (racemic), in assay [1], the inhibition result was “inactive”. The fold change (FC) in [2] came to 1.19.

Consider `Nc1c2c(nc3ccccc13)CCCC2` [TACRINE], for which the inhibition of growth at 2000 µM in the assay with HEK293 [3] amounted to 83%; in the assay on HepG2 [5], 86.9%. Further, the inhibition of growth at 500 µM in the assay with HepG2 [4] stood at 83.4%; with HEK293 [6], 72.3%.

With `COc1ccc(-c2cc3cc(C4C5=C(CC(C)(C)CC5=O)Oc5nc6c(c(N)c54)CCCC6)cc(C(C)C)c3oc2=O)cc1` (racemic), in [2], the fold change (FC) is 1.88.

For `COc1cc(-c2cc3cc(C4C5=C(CCCC5=O)Oc5nc6c(c(N)c54)CCCC6)cc(C(C)C)c3oc2=O)cc(OC)c1OC` (racemic), the “fold change (FC)” value with Caenorhabditis elegans [7] stood at 1.75; in assay [1] it was 2.6; in the assay with Caenorhabditis elegans [9], 1.72; in assay [2] it was 1.2; with Caenorhabditis elegans [10] it was 2.6. For the same compound, the inhibition of growth at 2000 µM with HEK293 [3] was found to be 73.8%; in the assay with HepG2 [5], 27.8%. Besides, the inhibition of growth at 500 µM was 26.1% in the assay on HepG2 [4] and 54% in the assay on HEK293 [6]. Besides, in the assay with Caenorhabditis elegans [8], the result was Active.

For the compound `COc1ccc(-c2cc3cc(C4C5=C(CC(C)(C)CC5=O)Oc5nc6c(c(N)c54)CCCC6)cc(C(C)C)c3oc2=O)cc1OC` (racemic), in assay [1], the inhibition result was “inactive”. For the same compound, the fold change (FC) in assay [2] worked out at 1.16.

Turning to `CCC(C)c1cc(C2C3=C(CC(C)(C)CC3=O)Oc3nc4c(c(N)c32)CCCC4)cc2cc(-c3ccc(OC)cc3)c(=O)oc12` (racemic), the fold change (FC) in assay [1] amounted to 2; in assay [2], 1.51.

With `COc1ccc(-c2cc3cc(C4C5=C(CC(C)(C)CC5=O)Oc5nc6c(c(N)c54)CCC6)cc(C(C)C)c3oc2=O)cc1` (racemic), in assay [1], the inhibition entry is “inactive”. Moreover, the “fold change (FC)” value is 2.16 with Caenorhabditis elegans [9] and 1.5 in assay [2].

For the compound `CCC(C)c1cc(C2C3=C(CC(C)(C)CC3=O)Oc3nc4c(c(N)c32)CCCC4)cc2cc(-c3cc(OC)c(OC)c(OC)c3)c(=O)oc12` (racemic), the fold change (FC) in assay [1] is 1.35. For the same compound, the inhibition entry in [2] is “inactive”.

As for `CCC(C)c1cc(C2C3=C(CCCC3=O)Oc3nc4c(c(N)c32)CCCC4)cc2cc(-c3cc(OC)c(OC)c(OC)c3)c(=O)oc12` (racemic), the “fold change (FC)” value in the assay on Caenorhabditis elegans [7] amounted to 1.9; in assay [1], 2.1; in the assay with Caenorhabditis elegans [9] it was 1.84; in assay [2], 1.15; in the assay with Caenorhabditis elegans [10] it was 1.8. Further, the figures for the inhibition of growth at 2000 µM in the assay with HEK293 [3] and with HepG2 [5] were 56.9% and 16.5%, respectively. Besides, the inhibition of growth at 500 µM with HepG2 [4] worked out at 8.66%; with HEK293 [6], 6.5%. In the assay with Caenorhabditis elegans [8], the result was inactive.
